Laboratory results taken from US9328118B2, “Nitrogen-containing bicyclic aromatic heterocyclic compound” (ASTELLAS PHARMA INC., priority 2012, dated 2016).
pIC50: −log10 of the molar value. Counter-ions that a name gives are not always drawn. Like-named read-outs stand apart in the source and are kept apart here.

Legend:
human cathepsin S = human cathepsin S (Homo sapiens (Human), UniProt P25774); experiment: In vitro human cathepsin S inhibitory activity (VVR-AMC fluorescence); type: biochemical; conditions: human cathepsin S enzyme, substrate VVR-AMC 40 μM, pH 4.5, 37° C.; read-out: IC50 value of the human cathepsin S inhibitory activity (Data 1)
Method: Test Example 1 Measurement of a In Vitro Human Cathepsin S Inhibitory Activity
5 μL of a human cathepsin S enzyme (R&D1183-CY-010) was added to a 96-well plate so as to be 20 ng/well. […] A reaction rate at the time of not adding an enzyme in which the test compound was not added and a reaction rate at the time of adding an enzyme in which the test compound was not added were set to 100% inhibition and 0% inhibition, respectively, then, an inhibition rate at each concentration was determined, and IC50 values were calculated by a linear regression method. In the Table, Ex represents Example compound No., and Data 1 represents an IC50 value (nM) of the human cathepsin S inhibitory activity.

[1] = system: MHC class II expression in B220 positive B cells of mouse spleen cells; experiment: In vitro MHC class II expression inhibitory effect using mouse spleen cells (LPS-stimulated B cells, flow cytometry); type: cell-based, C57BL/6 mice; conditions: B-cell, read-out: IC50 value of MHC class II expression inhibition (Data 2)
Method: Test Example 2 Evaluation of In Vitro MHC Class II Expression Inhibitory Effect Using Mouse Spleen Cells (Cell Evaluation System)
In antigen-presenting cells, the inhibition of cathepsin S inhibits the expression of MHC class II molecules. […] For an increased expression of MI-IC class II in B cells, the inhibitory effect of the compound represented by formula (I) was examined.
First, spleen cells collected from C57BL/6 mice were seeded in a 96-well plate so as to be a 1×10^5 cells/well, then, 5-fold dilution of 10 mM DMSO solution of the test compound was serially performed with RPMI 1640 medium (including 10% fetal bovine serum (FCS), 5×10^−5 M 2-mercaptoethanol, 50 IU/mL penicillin and 50 μg/mL streptomycin) nine times such that the final concentration becomes 0.026 nM to 10 μM, and the resultant products were added thereto (the final DMSO concentration was 0.1%). At the same time, LPS (Sigma L4005) was added to the wells such that the final concentration becomes 2 μg/mL, and culture was performed at 37° C. for 48 hours in 5% CO2. After culturing, the cells were stained at 4° C. for 20 minutes with PE-labeled streptavidin (BD BIOSCIENCE 554061) and biotin-labeled YAe antibody (EBIOSCIENCE 13-5741-85) together with FITC-labeled anti-mouse B220 antibody (BD BIOSCIENCE 553088), and an expression level (fluorescence intensity of YAe-biotin/streptavidin-PE) of MHC class II to which Ea peptide in B220 positive B cells was bonded was measured using a flow cytometry system (Guava EasyCyte Plus System, manufactured by Millipore Corporation). A value at the time of unstimulation of LPS in which the test compound was not added and a value at the time of stimulation of LPS in which the test compound was not added were set to 100% inhibition and 0% inhibition, respectively, then, an inhibition rate at each concentration was determined, and IC50 values were calculated by a linear regression method. In the Table, Ex represents Example compound No., and Data 2 represents an IC50 value (nM).

[2] = system: OVA specific IgG antibody titer; experiment: Antibody production inhibitory effect in mouse OVA-induced antibody production model; type: in vivo, BALB/c male mice; conditions: oral 1 mg/kg daily Day 0 to Day 14, titer at Day 14
Method: Test Example 4 Evaluation of Antibody Production Inhibitory Effect in Mouse OVA-Induced Antibody Production Model
Evaluation of an antibody production inhibitory effect in vivo was performed.
The BALB/c male mice were sensitized by intraperitoneal administration of 200 μL of an emulsion consisting of 100 μg of ovalbumin (OVA) (SIGMA A5503) and 100 μL of a complete Freund's adjuvant (CFA) (DIFCO 231131) (Day 0), and a week after that, the mice were sensitized by intraperitoneal administration of 200 μL of an emulsion consisting of 50 μg of OVA and 100 μL of an incomplete Freund's adjuvant (IFA) (DIFCO 263910) (Day 7). The test compound dissolved in a vehicle (30% propylene glycol solvent (propylene glycol:HCO40:Tween 80=4:2:1)/HCl (2 equivalents with respect to the test compound)/water) was orally administered (dose: 0.3 mg/kg, 1 mg/kg, or 3 mg/kg) at 10 mL/kg/day from Day 0 to Day 14, and an OVA specific IgG antibody titer in blood plasma at Day 14 was evaluated. Measurement of antibody titer was carried out using a blood plasma sample which was diluted 40,000 times by an ELISA method, and the antibody titer was represented as a ratio with respect to control blood plasma. An antibody titer of a mouse to which the vehicle was orally administered at 10 mL/kg/day from Day 0 to Day 14 was set to 0% inhibition, an antibody titer of a normal mouse to which the vehicle was orally administered at 10 mL/kg/day from Day 0 to Day 14 and which was not sensitized with OVA was set to 100% inhibition, and the inhibition rate at the time of the test compound administration was calculated.

[3] = system: MHC class II expression in peripheral blood B cells; experiment: Ex vivo MHC class II expression inhibitory effect using mouse peripheral blood after oral administration; type: in vivo, C57BL/6 mice; conditions: oral 0.3 mg/kg, blood collected after 3 hours, LPS 15 hours
Method: Test Example 3 Evaluation of Ex Vivo MHC Class II Expression Inhibitory Effect Using Mouse Peripheral Blood
The expression inhibitory effect of MHC class II molecules was evaluated in an ex vivo system.
The test compound was orally administered into C57BL/6mice, and the inhibitory effect with respect to the increased expression of MHC class II in B cells in peripheral blood after oral administration was examined. That is, 10 mL/kg of the test compound dissolved in a vehicle (30% propylene glycol solvent (propylene glycol:cured castor oil (HCO40):Tween 80=4:2:1)/HCl (2 equivalents with respect to the test compound)/water) was orally administered (dose: 0.1 mg/kg, 0.3 mg/kg, 1 mg/kg, or 3 mg/kg) to a C57BL/6mice, and the peripheral blood was collected after 3 hours. 10 μL of RPMI 1640 medium (including 5×10^−5 M of 2-mercaptoethanol, 50 IU/mL of penicillin, and 50 μg/mL of streptomycin) or 10 μL of LPS adjusted with the medium such that the final concentration becomes 100 μg/mL was added to 90 μL of the peripheral blood, and culture was performed at 37° C. for 15 hours in 5% CO2. After culturing, the cells were stained at 4° C. for 30 minutes with FITC-labeled anti-mouse I-A/I-E antibody (BD BIOSCIENCE 553623) and PE-labeled B220 antibody (BD BIOSCIENCE 553090), and hemolysis and fixation were performed at 37° C. for 10 minutes using a buffer (BD BIOSCIENCE Phosflow Lyse/Fix Buffer 558049). After washing, using a flow cytometry system (FACSCanto II, manufactured by BD BIOSCIENCE), an expression level of MHC class II on a B220 positive B cell surface was measured by using a fluorescence intensity of FITC (hereinafter, referred to as MFI) as an indicator. The difference between a MFI at the time of stimulation of LPS and a MFI at the time of unstimulation of LPS was set to a ΔMFI, a ΔMFI of a mouse in which 10 mL/kg of only vehicle was administered was set to 1, and the inhibition rate of ΔMFI by the test compound administration was calculated.

[4] = C57BL/6 spleen cells, LPS 2 μg/mL, 48 hours, B220 positive B cells

Chain of human cathepsin S (P25774 115-331): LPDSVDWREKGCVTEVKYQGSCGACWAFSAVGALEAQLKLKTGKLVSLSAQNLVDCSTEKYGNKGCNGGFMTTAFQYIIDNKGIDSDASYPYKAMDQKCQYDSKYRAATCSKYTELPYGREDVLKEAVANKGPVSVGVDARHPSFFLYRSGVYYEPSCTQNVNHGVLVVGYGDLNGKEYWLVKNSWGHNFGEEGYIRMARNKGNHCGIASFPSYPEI

Row | Compound | pIC50 [1, 4] | further results
1 | Cl.Cn1ccc2c(-c3ccc(OCCC4CCNCC4)c(C(F)(F)F)c3)nc(C#N)nc21 [Example 2, 7-methyl-4-{4-[2-(piperidin-4-yl)ethoxy]-3-(trifluoromethyl)phenyl}-7H-pyrrolo[2,3-d]pyrimidine-2-carbonitrile monohydrochloride] | 8.92 | pIC50 (human cathepsin S): 8.64; inhibition of OVA specific IgG antibody titer in blood plasma [2]: 61±10%
2 | CN(C)C(=O)CN1CCC(CCOc2ccc(-c3nc(C#N)nc4c3ccn4C)cc2C(F)(F)F)CC1 [Example 3, 2-(4-{2-[4-(2-cyano-7-methyl-7H-pyrrolo[2,3-d]pyrimidin-4-yl)-2-(trifluoromethyl)phenoxy]ethyl}piperidin-1-yl)-N,N-dimethylacetamide] | 9.00 | pIC50 (human cathepsin S): 8.59
3 | CN1CCC[C@@H]1C(=O)N1CCC(CCOc2ccc(-c3nc(C#N)nc4c3ncn4C)cc2C(F)(F)F)CC1 [Example 6, 9-methyl-6-[4-{2-[1-(1-methyl-D-prolyl)piperidin-4-yl]ethoxy}-3-(trifluoromethyl)phenyl]-9H-purine-2-carbonitrile] | 9.16 | pIC50 (human cathepsin S): 8.47
4 | CN1CCC[C@H]1C(=O)N1CCC(CCOc2ccc(-c3nc(C#N)nc4c3ccn4CC3CCCO3)cc2C(F)(F)F)CC1 (stereo partly drawn) [Example 15, 4-[4-{2-[1-(1-methyl-L-prolyl)piperidin-4-yl]ethoxy}-3-(trifluoromethyl)phenyl]-7-(tetrahydrofuran-2-ylmethyl)-7H-pyrrolo[2,3-d]pyrimidine-2-carbonitrile monohydrochloride] | 8.68 | pIC50 (human cathepsin S): 8.47
5 | Cl.Cn1cnc2c(-c3cnc(OCCC4CCNCC4)c(C(F)(F)F)c3)nc(C#N)nc21 [Example 28, 9-methyl-6-{6-[2-(piperidin-4-yl)ethoxy]-5-(trifluoromethyl)pyridin-3-yl}-9H-purine-2-carbonitrile monohydrochloride] |  | inhibition rate of ΔMFI (increased expression of MHC class II in peripheral blood B cells) [3]: 40±1.4%; inhibition of OVA specific IgG antibody titer in blood plasma [2]: 83±2%
6 | CN1CCC(NC(=O)Cn2ccc3c(-c4ccc(OCCC5CCOCC5)c(C(F)(F)F)c4)nc(C#N)nc32)CC1 [Example 47] |  | pIC50 (human cathepsin S): 8.68; pIC50 ([1]; 48 h): 8.70
7 | CN(C)C(=O)CN1CCC(CCOc2ccc(-c3nc(C#N)nc4c3ccn4CC3CCOC3)cc2C(F)(F)F)CC1 (stereo not shown) [Example 66] | 8.68 | 
8 | CCN1CCC(CCOc2ccc(-c3nc(C#N)nc4c3ncn4CC3CCOC3)cc2C(F)(F)F)CC1 (stereo not shown) [Example 70] | 9.12 | 
9 | CCN1CCC(CCOc2ncc(-c3nc(C#N)nc4c3ncn4CC3CCOC3)cc2C(F)(F)F)CC1 (stereo not shown) [Example 71] | 8.89 | 
10 | CN(C)C(=O)CN1CCC(CCOc2ccc(-c3nc(C#N)nc4c3ncn4C)cc2C(F)(F)F)CC1 [Example 72] | 9.14 | 
11 | CN1CCC[C@H]1C(=O)N1CCC(CCOc2ccc(-c3nc(C#N)nc4c3ncn4CC3CCOC3)cc2C(F)(F)F)CC1 (stereo partly shown) [Example 77] | 8.82 | pIC50 (human cathepsin S): 8.57

Second part, led by results:

Row | pIC50 [1, 4] | Compound | further results
12 | 8.60 | CN1CCC[C@H]1C(=O)N1CCC(CCOc2ncc(-c3nc(C#N)nc4c3ncn4CC3CCOC3)cc2C(F)(F)F)CC1 (stereo partly shown) [Example 79] | 
13 | 8.64 | CCN1CCC(CCOc2ccc(-c3nc(C#N)nc4c3ccn4CC3CCCO3)cc2C(F)(F)F)CC1 (stereo not shown) [Example 88] | 
14 | 9.04 | CN1CCC[C@H]1C(=O)N1CCC(COc2ccc(-c3nc(C#N)nc4c3ccn4CC3CCOC3)cc2C(F)(F)F)CC1 (stereo partly shown) [Example 105] | 
15 | 8.49 | CCN1CCC(COc2ccc(-c3nc(C#N)nc4c3ccn4CC3CCOC3)cc2C(F)(F)F)CC1 (stereo not shown) [Example 106] | 
16 | 9.04 | CCN1CCC(CCOc2ccc(-c3nc(C#N)nc4c3ccn4CCO)cc2C(F)(F)F)CC1 [Example 110] | 
17 | 8.74 | Cn1ccc2c(-c3cnc(OCCC4CCNCC4)c(C(F)(F)F)c3)nc(C#N)nc21 [Example 116] | 
18 | 9.00 | Cn1cnc2c(-c3ccc(OCCC4CCN(CC(=O)N5CCC(C#N)CC5)CC4)c(C(F)(F)F)c3)nc(C#N)nc21 [Example 120] | 
19 | 9.06 | Cn1cnc2c(-c3ccc(OCCC4CCN(CC(=O)N5CC[C@H](F)C5)CC4)c(C(F)(F)F)c3)nc(C#N)nc21 [Example 122] | 
20 | 9.05 | Cn1ccc2c(-c3cnc(OCC4CCN(C(=O)C5CCN(CC(C)(C)O)CC5)CC4)c(C(F)(F)F)c3)nc(C#N)nc21 [Example 135, 4-{6-[(1-{[1-(2-hydroxy-2-methylpropyl)piperidin-4-yl]carbonyl}piperidin-4-yl)methoxy]-5-(trifluoromethyl)pyridin-3-yl}-7-methyl-7H-pyrrolo[2,3-d]pyrimidine-2-carbonitrile] | 
21 | 9.19 | Cn1cnc2c(-c3cnc(OCCC4CCN(C5CCC5)CC4)c(C(F)(F)F)c3)nc(C#N)nc21 [Example 141] | 
22 | 9.21 | CN1CCC[C@@H]1C(=O)N1CC[C@@H](OCCOc2ncc(-c3nc(C#N)nc4c3ccn4C)cc2C(F)(F)F)C1 [Example 158] | inhibition rate of ΔMFI (increased expression of MHC class II in peripheral blood B cells) [3]: 59±1.5%
